Calls of active or inactive are those of the source. The calls are words filed in the database; no cut-off is given here.

Consider three molecules from ChEMBL document CHEMBL3045956, “Bioisosteric synthesis of nitrogen containing derivatives of salicyl alcohol, their in vivo pharmacological studies with molecular modeling” (2013).

The subject of assay [1] is Mus musculus. Put plainly: Analgesic activity in Balb/c albino Mus musculus (mouse) assessed as protection against acetic acid-induced writhing at 15 to 45 mg/kg measured up to 20 min relative to control. The class given is functional. To be noted: dose mg/kg 15-45. A general note: In writhing tests, fewer writhes than in controls are read as antinociception.
In assay [2] the test system is Mus musculus. Kind of assay: Antipyretic activity in Balb/c albino Mus musculus (mouse) assessed as Brewer's yeast-induced rectal temperature at 50 to 150 mg/kg, ip measured after 3 hr (reference value: 38.7 degC). It counts as functional. To be noted: dose mg/kg 50-150; route intraperitoneal.
In assay [3] the test system is Mus musculus. Put plainly: Anti-inflammatory activity in Balb/c albino Mus musculus (mouse) assessed as inhibition of carrageenan-induced paw edema at 50 to 150 mg/kg at 5 hr relative to control. It counts as functional, organism-based. A general note: The carrageenan paw model is a standard test of acute inflammation.
The subject of assay [4] is Mus musculus. Put plainly: Antinociceptive activity in Balb/c albino Mus musculus (mouse) assessed as latency time on hot plate at 15 to 45 mg/kg up to 60 min by hot-plate method relative to control. It counts as functional, organism-based. (Thermal pain tests record how soon the animal reacts.)
In assay [5] the test system is Mus musculus. Put plainly: Anti-inflammatory activity in Balb/c albino Mus musculus (mouse) assessed as inhibition of carrageenan-induced paw edema at 50 to 150 mg/kg at 1 hr relative to control. The class given is functional, organism-based.
Assay [6] deals with Mus musculus. Put plainly: Antipyretic activity in Balb/c albino Mus musculus (mouse) assessed as decrease in Brewer's yeast-induced rectal temperature at 50 to 150 mg/kg, ip measured up to 1.5 hr relative to control. The class given is functional, organism-based.
Assay [7] relates to Mus musculus. Put plainly: Anti-inflammatory activity in Balb/c albino Mus musculus (mouse) assessed as inhibition of carrageenan-induced paw edema at 50 to 150 mg/kg up to 5 hr relative to control. It counts as functional, organism-based.

Consider `CC(=O)Oc1ccccc1C(=O)O` [ASPIRIN], for which the Activity with Mus musculus [1] worked out at 78.38%.
Consider `Cl.Oc1ccccc1CN1CCCCC1`, for which the T with Mus musculus [2] amounted to 37.7 °C. Further, the inhibition entry in the assay with Mus musculus [3], in the assay on Mus musculus [5] and with Mus musculus [6] was “Active” in each case. The result in the assay on Mus musculus [4] was inactive. Further, the Activity in the assay on Mus musculus [1] came to 67.62%.
As for `Cl.NC(=O)C1CCN(Cc2ccccc2O)CC1`, in the assay on Mus musculus [2], the T came out at 37.2 °C. Moreover, the inhibition entry in the assay with Mus musculus [3], with Mus musculus [5], with Mus musculus [6] and with Mus musculus [7] was “Active” in each case. Further, the outcome with Mus musculus [4] was inactive. For the same molecule, the Activity in the assay with Mus musculus [1] stood at 67.34%.
